Key:
Type in all cases: in vivo
Lemna minor = assay: Herbicide activity on Lemna minor in vitro, fresh weight reduction after one week; conditions: fresh weight reduction compared to untreated plants, 7-day exposure, all chemicals 10 mg/L
Method: The experiment was carried out in Lemna minor growing in vitro conditions. Lemna minor (duckweed) was bought in the local market. A stock culture was maintained on modified Hoagland medium in a controlled environment. The pH of the medium was adjusted to 6.0, and the plants were grown under static conditions in a plant growth chamber at 25±2° C., light/dark regime of 16 h/8 h.
For the experiments, fronds free from any visible chlorosis were taken from the stock cultures and exposed to the appropriate treatment. For each treatment, we used six repetitions with three fronds per repetition as the initial frond number. Individual fronds were transferred to a 12 well multiplate containing Hoagland medium (control), Hoagland medium containing polyferulates, herbicides or the combination as shown in Table 9. All chemicals were evaluated at the same concentration (10 mg/L). The multiplate was covered with a transparent cover to prevent evaporation. The herbicide activity was evaluated as fresh weight reduction compared to untreated plants after one week of incubation in the described conditions.

potato plants = assay: Desiccation of potato plants, field plots, visual evaluation 15 days after treatment; conditions: three herbicides tested
Source text: The desiccant was applied by spraying.

Echinochloa colona = assay: Herbicide activity on Echinochloa colona plants, visual evaluation 20 days after treatment; conditions: E. colona, 20 DAT, application rate 110 g a.i. ha^−1
Source text: Echinochloa colona is a cosmopolitan weed common in crops (mainly rice, maize and vegetables), gardens, roadsides, disturbed sites, waste areas and pastures. It also grows along waterways, on the margins of lakes and ponds, in swamps and wetlands, and in other damp habitats. It has the potential to invade natural areas and completely outcompete native vegetation. This weed pose a significant threat to rice productivity globally and are usually reported as noxious weeds in several economically important crops around the world. E. colona has vigorous growth traits and high seed production since each E. colona plant can produce up to 42,000 seeds. The experiment in Echinochloa colona plants was carried out in independent pots and in four replications. […] The products were applied by spraying. The herbicide activity was visually evaluated 20 days after treatment.

`CCOC1Oc2ccc(OS(C)(=O)=O)cc2C1(C)C` (stereo not shown) [Ethofumesate] gave a Herbicide activity (Lemna minor) of 0%.

With `COc1cc(/C=C/C(=O)O)ccc1O` [Ferulic acid, (2E)-3-(4-hydroxy-3methoxyphenyl) prop-2-enoic acid] the “Effect in combination with the herbicides tested (synergism or antagonism according to Colby)” value (potato plants) was “antagonist”.

`COC(=O)Nc1cccc(OC(=O)Nc2cccc(C)c2)c1` [Phenmedipham] showed a Herbicide activity (Lemna minor) of 3%.

`CCCC(=NOCC(C)Oc1ccc(Cl)cc1)C1=C(O)CC(C2CCCSC2)CC1=O` (stereo not shown) [Profoxydim] gave a Herbicide activity (Lemna minor) of 45% and a Herbicide activity (Echinochloa colona) of 34.

Work on `COC(=O)c1cccc(C)c1S(=O)(=O)NC(=O)Nc1nc(OCC(F)(F)F)nc(N(C)C)n1` [Triflusulfuron-methyl] yielded a Herbicide activity (Lemna minor) of 34%.

In the case of Diferulic acid, the “Effect in combination with the herbicides tested (synergism or antagonism according to Colby)” value (potato plants) is reported as “antagonist”.

Source: patent publication US12564190B2, “Biobased herbicide enhancer agent and method for using the same” (priority 2021, dated 2026)
